Legend:
Human alphaherpesvirus 3 [1] = assay: Antiviral activity against thymidine kinase-deficient Varicella zoster virus 07-1 assessed as reduction in virus-induced cytopathogenicity by cell-based assay; assay type: functional, organism-based; conditions: Human alphaherpesvirus 3, 07-1
Human betaherpesvirus 5 [2] = assay: Antiviral activity against Human cytomegalovirus AD169 assessed as reduction in viral plaque formation; assay type: functional, organism-based; conditions: Human betaherpesvirus 5, AD169
Human betaherpesvirus 5 [3] = assay: Antiviral activity against Human cytomegalovirus Davis assessed as reduction in viral plaque formation; assay type: functional, organism-based; conditions: Human betaherpesvirus 5, Davis
[4] = Cytotoxicity against HEL cells assessed as alteration in cellular morphology; assay type: cell-based; conditions: human
[5] = Cytotoxicity against HEL cells assessed as growth inhibition; assay type: cell-based; conditions: human
L1210 = assay: Cytostatic activity against mouse L1210 cells after 48 hrs by Coulter counting analysis; assay type: functional, cell-based; conditions: L1210, 48 h
CCRF-CEM = assay: Cytostatic activity against human CEM cells after 72 hrs by Coulter counting analysis; assay type: functional, cell-based
HeLa = assay: Cytostatic activity against human HeLa cells after 72 hrs by Coulter counting analysis; assay type: functional, cell-based
Human alphaherpesvirus 1 [6] = assay: Antiviral activity against Herpes simplex virus type 1 KOS assessed as reduction in virus-induced cytopathogenicity by cell-based assay; assay type: functional, organism-based; conditions: Human alphaherpesvirus 1, KOS
Human alphaherpesvirus 1 [7] = assay: Antiviral activity against thymidine kinase-deficient ACV-resistant Herpes simplex virus type 1 KOS assessed as reduction in virus-induced cytopathogenicity by cell-based assay; assay type: functional, organism-based; conditions: Human alphaherpesvirus 1, KOS
Human alphaherpesvirus 2 = assay: Antiviral activity against Herpes simplex virus type 2 G assessed as reduction in virus-induced cytopathogenicity by cell-based assay; assay type: functional, organism-based; conditions: Human alphaherpesvirus 2, strain G
Human alphaherpesvirus 3 [8] = assay: Antiviral activity against Varicella zoster virus Oka assessed as reduction in virus-induced cytopathogenicity by cell-based assay; assay type: functional, organism-based; conditions: Human alphaherpesvirus 3, strain Oka vaccine

SMILES	EC50 (Human alphaherpesvirus 3 [1])	EC50 (Human betaherpesvirus 5 [2])	EC50 (Human betaherpesvirus 5 [3])	MCC [4]	CC50 [5]	IC50 (L1210)	IC50 (CCRF-CEM)	IC50 (HeLa)	EC50 (Human alphaherpesvirus 1 [6])	EC50 (Human alphaherpesvirus 1 [7])	EC50 (Human alphaherpesvirus 2)	EC50 (Human alphaherpesvirus 3 [8])
C=C(C)[C@@H]1CC[C@]2(C(=O)O)CC[C@]3(C)[C@H](CC[C@@H]4[C@@]5(C)CC(=O)C(=O)C(C)(C)[C@@H]5CC[C@]43C)[C@@H]12	10 µM	3 µM	2.9 µM	20 µM	51 µM	12 µM	13 µM	19 µM	10 µM	10 µM	10 µM	10 µM
C=C(C)[C@@H]1CC[C@]2(C(=O)O)CC[C@]3(C)[C@H](CC[C@@H]4[C@@]5(C)Cc6n[nH]c(=S)nc6C(C)(C)[C@@H]5CC[C@]43C)[C@@H]12	–	≥ 20 µM	≥ 20 µM	> 100 µM	> 100 µM	196 µM	204 µM	160 µM	–	–	–	–
C=C(C)[C@@H]1CC[C@]2(C(=O)O)CC[C@]3(C)[C@H](CC[C@@H]4[C@@]5(C)Cc6nnc(SC)nc6C(C)(C)[C@@H]5CC[C@]43C)[C@@H]12	–	1.8 µM	2 µM	20 µM	45 µM	7.3 µM	2.6 µM	7.3 µM	–	–	–	–
C#CCCSc1nnc2c(n1)C(C)(C)[C@@H]1CC[C@]3(C)[C@H](CC[C@@H]4[C@H]5[C@H](C(=C)C)CC[C@]5(C(=O)O)CC[C@]43C)[C@@]1(C)C2	–	> 4 µM	≥ 4 µM	20 µM	55 µM	4.9 µM	1.2 µM	9.1 µM	–	–	–	–
C=C(C)[C@@H]1CC[C@]2(C(=O)O)CC[C@]3(C)[C@H](CC[C@@H]4[C@@]5(C)Cc6cc7c(nc6C(C)(C)[C@@H]5CC[C@]43C)SCC7)[C@@H]12	–	8.6 µM	11 µM	–	74 µM	7.8 µM	3.8 µM	10 µM	–	–	–	–

From ChEMBL document CHEMBL3286370, “Synthesis of triterpenoid triazine derivatives from allobetulone and betulonic acid with biological activities” (Bioorg Med Chem, 2014)
